The target of test [1] is T1, Kinase A and SpoOF (Bacillus subtilis, UniProt P16497).
T1 construct: made in house; host or cells: recombinant E. coli (overexpression)
T1 sequence (P16497 1-606): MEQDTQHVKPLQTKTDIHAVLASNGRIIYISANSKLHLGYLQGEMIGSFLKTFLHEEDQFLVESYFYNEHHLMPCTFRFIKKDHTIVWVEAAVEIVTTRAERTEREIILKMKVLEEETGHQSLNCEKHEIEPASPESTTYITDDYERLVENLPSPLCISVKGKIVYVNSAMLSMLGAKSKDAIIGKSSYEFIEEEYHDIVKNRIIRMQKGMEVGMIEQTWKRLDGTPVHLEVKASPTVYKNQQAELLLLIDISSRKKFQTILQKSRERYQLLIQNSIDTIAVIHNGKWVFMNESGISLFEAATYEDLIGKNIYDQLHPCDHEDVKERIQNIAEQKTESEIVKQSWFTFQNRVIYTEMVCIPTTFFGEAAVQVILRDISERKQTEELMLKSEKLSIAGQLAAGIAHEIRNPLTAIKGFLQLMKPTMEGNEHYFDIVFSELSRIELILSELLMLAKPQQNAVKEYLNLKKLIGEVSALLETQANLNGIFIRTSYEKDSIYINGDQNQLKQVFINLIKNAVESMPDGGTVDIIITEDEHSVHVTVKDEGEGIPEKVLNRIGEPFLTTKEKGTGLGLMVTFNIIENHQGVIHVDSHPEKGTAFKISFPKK
The experiment in a line: Autophosphorylation of Kinase A and Transphosphorylation of SpoOF Assay (HPK in vitro assay). The following applies: inhibition of KinA autophosphorylation / SpoOF transphosphorylation, inhibitor concentrations from 1 to 500 μM. Type of test: biochemical. In outline:
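Recombinant KinA and SpoOF (from E. coli) preincubated 15 min on ice with compound (1.0 mM solution in 5% DMSO, stock), then 10 min at room temperature with [32P]ATP. Labelled proteins resolved by SDS gel, quantified by phosphoimager; IC50 from 1–500 μM compound range.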

Test [2] has as its system gram positive bacteria. The experiment in a line: MIC antimicrobial assay, microdilution broth method (NCCLS), gram positive bacteria. It counts as cell-based. The following applies: range over the gram positive test organisms; 35° C., 16-20 hours. On the procedure: (§1) 2. MIC Anitimicrobial Assay
(§2) The in vitro antimicrobial activity of the compounds was determined by the microdilution broth method following the test method from the National Committee for Laboratory Standards (NCCLS). This method is described in the NCCLS Document M7-A2, Vol. 10, No. 8 "Methods for Dilution Antimicrobial Susceptibility Test for Bacteria that Grow Aerobically--Second Edition."
(§3) In this method two-fold serial dilutions of drug in cation supplemented Mueller-Hinton broth are added to wells in microdilution trays. The test organisms are prepared by adjusting the turbidity of actively growing broth cultures so that the final concentration of test organism after it is added to the wells is approximately 5×10^4 CFUs/well.
(§4) Following inoculation of the microdilution trays, the trays are incubated at 35° C. for 16-20 hours and then read. […] The amount of growth in the wells containing the test compound is compared with the amount of growth in the growth-control wells (no test compound) used in each tray. As set forth in Tables 1 and 2, compounds of the present invention were tested against a variety of Gram+ and Gram- pathogenic bacteria resulting in a range of activities, from 1→128 μg/mL depending on the organism tested. The following test organisms were utilized in the assay:
Enterococcus faecalis ATCC 29212
Enterococcus faecalis oc 3041
Enterococcus faecium oc 2993
Methicillin resistant Staphylococcus aureus oc 2089
Methicillin resistant Staphylococcus aureus oc667
Staphylococcus aureus ATCC 29213
Staphylococcus aureus ATCC 6538
Staphylococcus epidermidis oc 2603
For orientation: In broth dilution the organism is exposed to a series of concentrations in liquid medium.

For test [3], the system named is gram negative bacteria. The experiment in a line: MIC antimicrobial assay, microdilution broth method (NCCLS), gram negative bacteria. The following applies: range over the gram negative test organisms; 35° C., 16-20 hours. It counts as cell-based. On the procedure:
as §1, §2, §3, §4
Escherichia coli oc 2530 ss
Klebsiella pneumoniae oc 1943
Pseudomonas aeroginosa oc 161
Pseudomonas aeroginosa ATCC 27853

≈ marks a conversion by molar mass, not a printed value.

In test [1], `NCc1ccc(OCCC2Oc3ccccc3N(Cc3cccc(Cl)c3)C2=O)cc1` (centres unmarked) [Compound 2, 2-[2-[4-(Aminomethyl)phenoxy]ethyl]-4-(3-chlorobenzyl)-3,4-dihydro-3-oxo-2H-1,4-benzoxazine] registered an IC50 of 55 µM. Further, the MIC in test [2] was in the range of 8 to 32 µg/mL (≈ 18.9 to 75.7 µM).

`NCc1ccc(OCCC2Oc3ccccc3N(Cc3ccc(Cl)cc3)C2=O)cc1` (centres unmarked) [Compound 4, 2-[2-[4-(Aminomethyl)phenoxy]ethyl]-4-(4-chlorobenzyl)-3,4-dihydro-3-oxo-2H-1,4-benzoxazine] returned an IC50 in test [1] of 47 µM. In test [2], this compound came in with an MIC of 8 to 16 µg/mL (≈ 18.9 to 37.8 µM).

With `NCCc1ccc(OCCC2Oc3ccccc3N(Cc3ccc(Cl)cc3)C2=O)cc1` (centres unmarked) [Compound 6, 2-[2-[4-(2-Aminoethyl)phenoxy]ethyl]-4-(4-chlorobenzyl)-3,4-dihydro-3-oxo-2H-1,4-benzoxazine], the IC50 in test [1] was determined as 61 µM. Moreover, the results for the MIC in test [2] and in test [3] were 1 to 2 µg/mL (≈ 2.29 to 4.58 µM) and 2 to 64 µg/mL (≈ 4.58 to 146 µM), respectively.

`NCCc1cccc(OCCC2Oc3ccccc3N(Cc3ccc(Cl)cc3)C2=O)c1` (centres unmarked) [Compound 8, 2-[2-[3-(2-Aminoethyl)phenoxy]ethyl]-4-(4-chlorobenzyl)-3,4-dihydro-3-oxo-2H-1,4-benzoxazine] registered an IC50 in test [1] of 89 µM. In addition, the minimum inhibitory concentration (MIC) in test [2] was 8 to 16 µg/mL (≈ 18.3 to 36.6 µM); in test [3] it was 8 to 128 µg/mL (≈ 18.3 to 293 µM).

With `NCCc1cccc(OCCC2Oc3ccccc3N(Cc3ccccc3Cl)C2=O)c1` (centres unmarked) [Compound 16, 2-[2-[3-(2-Aminoethyl)phenoxy]ethyl]-4-(2-chlorobenzyl)-3,4-dihydro-3-oxo-2H-1,4-benzoxazine], the IC50 in test [1] worked out at 74 µM. In test [2], the MIC was in the range of 8 to 16 µg/mL (≈ 18.3 to 36.6 µM).

With `N=C(N)NCc1ccc(OCCC2Oc3ccccc3N(Cc3ccccc3Cl)C2=O)cc1` (centres unmarked) [Compound 19, 4-(2-Chlorobenzyl)-2-[2-[4-(guanidinomethyl)phenoxy]ethyl]-3,4-dihydro-3-oxo-2H-1,4-benzoxazine], in test [1], the 50% inhibitory concentration (IC50) is listed as 16 µM. This compound registered a minimal inhibitory concentration (MIC) in test [2] of 1 to 4 µg/mL (≈ 2.15 to 8.6 µM).

`N=C(N)NCCc1ccc(OCCC2CN(Cc3ccc(Cl)cc3)c3ccccc3O2)cc1` (centres unmarked) [Compound 22, 4-(4-Chlorobenzyl)-2-[2-[4-(2-guanidinoethyl)phenoxy]ethyl]-3,4-dihydro-2H-1,4-benzoxazine]: in test [1], the IC50 is listed as 41 µM. The MIC in test [2] was in the range of 2 to 4 µg/mL (≈ 4.3 to 8.6 µM).

Take `N=C(N)NCCc1ccc(OCCC2CN(Cc3cccc(Cl)c3)c3ccccc3O2)cc1` (centres unmarked) [Compound 23, 4-(3-Chlorobenzyl)-2-[2-[4-(2-guanidinoethyl)phenoxy]ethyl]-3,4-dihydro-2H-1,4-benzoxazine]: in test [1], the IC50 is reported as 17 µM. In test [2], this compound yielded an MIC of 1 to 2 µg/mL (≈ 2.15 to 4.3 µM).

For `N=C(N)NCCc1ccc(OCCC2Oc3ccccc3N(Cc3ccc(Cl)cc3)C2=O)cc1` (centres unmarked) [Compound 26, 4-(4-Chlorobenzyl)-3,4-dihydro-2-[2-[4-(2-guanidinoethyl)phenoxy]ethyl]-3-oxo-2H-1,4-benzoxazine], in test [1], the IC50 is reported as 68 µM. The compound further had a minimum inhibitory concentration (MIC) in test [2] of 2 to 4 µg/mL (≈ 4.18 to 8.35 µM).

Turning to `NCc1ccc(OCCC2Oc3ccccc3N(Cc3cc(Cl)cc(Cl)c3)C2=O)cc1` (centres unmarked) [Compound 39, 2-{2-[4-(2-Aminomethyl)phenoxy]ethyl}-4-(3,5-dichlorobenzyl)-3,4-dihydro-3-oxo-2H-1,4-benzoxazine], the concentration for half-maximal inhibition (IC50) in test [1] is given as 46 µM. Also, the minimal inhibitory concentration (MIC) in test [2] was in the range of 4 to 16 µg/mL (≈ 8.75 to 35 µM).

As for `N=C(N)NCCc1ccc(OCCC2Oc3ccccc3N(Cc3cc(Cl)cc(Cl)c3)C2=O)cc1` (centres unmarked) [Compound 40, 4-(3,5-Dichlorobenzyl)-3,4-dihydro-2-{2-[4-(2-guanidinoethyl)phenoxy]ethyl}-3-oxo-2H-1,4-benzoxazine], in test [1], the IC50 was 24 µM. The compound also returned an MIC in test [2] of 2 µg/mL (≈ 3.9 µM).

Regarding `N=C(N)NCCc1ccc(OCCC2Oc3ccc(Cl)cc3N(Cc3cccc(Cl)c3)C2=O)cc1` (centres unmarked) [Compound 50, 6-Chloro-4-(3-chlorobenzyl)-2-{2-[4-(2-guanidinoethyl)phenoxy]ethyl}-3,4-dihydro-3-oxo-2H-1,4-benzoxazine], the IC50 in test [1] was 9 µM. In addition, the MIC in test [2] came to 2 µg/mL (≈ 3.9 µM).

`Cc1ccc2c(c1)OC(CCOc1ccc(CCNC(=N)N)cc1)C(=O)N2Cc1cccc(Cl)c1` (centres unmarked) [Compound 58, 4-(3-Chlorobenzyl)-2-{2-[4-(2-guanidinoethyl)phenoxy]ethyl}-3,4-dihydro-7-methyl-3-oxo-2H-1,4-benzoxazine] gave an IC50 in test [1] of 17 µM. In test [2], the MIC was 2 µg/mL (≈ 4.06 µM).

Compound `CN1C(=O)C(CCOc2ccc(CCNC(=N)N)cc2)Oc2ccccc21` (centres unmarked) [Compound 60, 3,4-Dihydro-2-{2-[4-(2-guanidinoethyl)phenoxy]ethyl}-4-methyl-3-oxo-2H-1,4-benzoxazine] had an IC50 in test [1] of 55 µM. In test [2], the minimum inhibitory concentration (MIC) was in the range of 16 to 34 µg/mL (≈ 43.4 to 92.3 µM).

In turn, `NCCc1cccc(OCCC2Oc3ccccc3N(Cc3cc(Cl)cc(Cl)c3)C2=O)c1` (centres unmarked) [Compound 64, 2-{2-[3-(2-Aminoethyl)phenoxy]ethyl}-4-(3,5-dichlorobenzyl)-3,4-dihydro-3-oxo-2H-1,4-benzoxazine] returned a 50% inhibitory concentration (IC50) in test [1] of 32 µM. In test [2], this compound returned an MIC of 4 to 8 µg/mL (≈ 8.49 to 17 µM).

For `NCCc1cccc(OCCC2Oc3ccccc3N(Cc3cccc(Cl)c3)C2=O)c1` (centres unmarked) [Compound 70, 2-{2-[3-(2-Aminoethyl)phenoxy]ethyl}-4-(3-chlorobenzyl)-3,4-dihydro-3-oxo-2H-1,4-benzoxazine], the IC50 in test [1] was 65 µM. The MIC in test [2] lay within 8 to 16 µg/mL (≈ 18.3 to 36.6 µM).

In test [1], `N=C(N)NCCc1ccc(OCCC2Oc3ccccc3N(Cc3cccc(Cl)c3)C2=O)cc1` (centres unmarked) [Compound 72, 4-(3-Chlorobenzyl)-3,4-dihydro-2-{2-[4-(2-guanidinoethyl)phenoxy]ethyl}-3-oxo-2H-1,4-benzoxazine] had a 50% inhibitory concentration (IC50) of 30 µM. Further, in test [2], the MIC is 2 to 4 µg/mL (≈ 4.18 to 8.35 µM).

`NCc1cccc(OCCC2Oc3ccccc3N(Cc3cccc(Cl)c3)C2=O)c1` (centres unmarked) [Compound 74, 2-{2-[3-(Aminomethyl)phenoxy]ethyl}-4-(3-chlorobenzyl)-3,4-dihydro-3-oxo-2H-1,4-benzoxazine]: in test [1], the IC50 is 81 µM. Further, the minimum inhibitory concentration (MIC) in test [2] fell in the range of 8 to 16 µg/mL (≈ 18.9 to 37.8 µM).

In test [1], `NCCCc1ccc(OCCC2Oc3ccccc3N(Cc3cccc(Cl)c3)C2=O)cc1` (centres unmarked) [Compound 76, 2-{2-[4-(3-Aminopropyl)phenoxy]ethyl}-4-(3-chlorobenzyl)-3,4-dihydro-3-oxo-2H-1,4-benzoxazine] yielded an IC50 of 32 µM. Also, the minimum inhibitory concentration (MIC) in test [2] was 8 µg/mL (≈ 17.7 µM).

As for `N=C(N)NCc1ccc(OCCC2Oc3ccccc3N(Cc3cccc(Cl)c3)C2=O)cc1` (centres unmarked) [Compound 78, 4-(3-Chlorobenzyl)-3,4-dihydro-2-{2-[4-(guanidinylmethyl)phenoxy]ethyl}-3-oxo-2H-1,4-benzoxazine], in test [1], the 50% inhibitory concentration (IC50) was 32 µM. Also, the minimum inhibitory concentration (MIC) in test [2] fell in the range of 1 to 4 µg/mL (≈ 2.15 to 8.6 µM).

As for `NCCc1ccc(OCCC2Oc3ccccc3N(Cc3cccc(Cl)c3)C2=O)cc1` (centres unmarked) [Compound 79, 2-{2-[4-(2-Aminoethyl)phenoxy]ethyl}-4-(3-chlorobenzyl)-3,4-dihydro-3-oxo-2H-1,4-benzoxazine], the half-maximal inhibitory concentration (IC50) in test [1] came out at 78 µM. Moreover, the MIC in test [2] was in the range of 8 to 16 µg/mL (≈ 18.3 to 36.6 µM).

Compound `N=C(N)NCCc1ccc(OCCC2Oc3ccc([N+](=O)[O-])cc3N(Cc3ccccc3Cl)C2=O)cc1` (centres unmarked) [Compound 89, 3,4-Dihydro-2-{2-[4-(2-guanidinoethyl)-phenoxy]ethyl}-6-nitro-4-(2-chlorobenzyl)-3-oxo-2H-1,4-benzoxazine] yielded a half-inhibitory concentration (IC50) in test [1] of 17 µM. The minimal inhibitory concentration (MIC) in test [2] fell in the range of 1 to 4 µg/mL (≈ 1.91 to 7.63 µM).

`N=C(N)NCCc1ccc(OCCC2Oc3ccc(N)cc3N(Cc3cccc(Cl)c3)C2=O)cc1` (centres unmarked) [Compound 92, 6-Amino-4-(3-chlorobenzyl)-3,4-dihydro-2-{2-[4-(2-guanidinoethyl)phenoxy]ethyl}-3-oxo-2H-1,4-benzoxazine] returned an IC50 in test [1] of 34 µM. Moreover, the minimum inhibitory concentration (MIC) in test [2] fell in the range of 2 to 16 µg/mL (≈ 4.05 to 32.4 µM).

In test [1], `N=C(N)NCc1ccc(OCCC2CN(Cc3ccccc3Cl)c3ccccc3O2)cc1` (centres unmarked) [Compound 145, 2-[2-[4-(2-guanidinomethyl)phenoxy]ethyl]-4-(2-chlorobenzyl)-3,4-dihydro-2H-1,4-benzoxazine] returned an IC50 of 23 µM. This compound came in with an MIC in test [2] of 1 to 2 µg/mL (≈ 2.22 to 4.43 µM).

By IC50 is commonly meant the concentration at which inhibition is half-maximal. Read a low IC50 as greater potency. Usually MIC stands for the least concentration at which growth counts as inhibited. The low end stands for inhibition by little substance, the high end for a need for much substance.

(Values after patent US5696117A, “Benzoxazine antimicrobial agents” (Ortho Pharmaceutical Corporation, priority 1995, dated 1997).)
